Reference: ChEMBL document CHEMBL5291721, “A preclinical secondary pharmacology resource illuminates target-adverse drug reaction associations of marketed drugs” (Nat Commun, 2023)

Tests used:
[1] = target: T1, Corticotropin-releasing factor receptor 2 (Homo sapiens, UniProt Q13324)
T1 sequence (Q13324 whole entry): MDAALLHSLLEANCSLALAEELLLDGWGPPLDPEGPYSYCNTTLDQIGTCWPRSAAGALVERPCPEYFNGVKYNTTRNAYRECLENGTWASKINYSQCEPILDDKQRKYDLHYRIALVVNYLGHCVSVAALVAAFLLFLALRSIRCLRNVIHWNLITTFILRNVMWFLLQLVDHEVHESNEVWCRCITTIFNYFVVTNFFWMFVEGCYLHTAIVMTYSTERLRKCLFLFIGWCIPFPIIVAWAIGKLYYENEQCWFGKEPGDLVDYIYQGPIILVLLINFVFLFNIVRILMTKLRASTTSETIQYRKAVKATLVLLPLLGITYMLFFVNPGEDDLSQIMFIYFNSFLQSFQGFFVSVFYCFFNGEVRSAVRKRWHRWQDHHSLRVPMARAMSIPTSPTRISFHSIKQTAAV

D(1A) dopamine receptor = D(1A) dopamine receptor (Homo sapiens, UniProt P21728); assay type: functional, cell-based
D(4) dopamine receptor = target: T2, D(4) dopamine receptor (Homo sapiens, UniProt P21917)
T2 sequence (P21917 whole entry): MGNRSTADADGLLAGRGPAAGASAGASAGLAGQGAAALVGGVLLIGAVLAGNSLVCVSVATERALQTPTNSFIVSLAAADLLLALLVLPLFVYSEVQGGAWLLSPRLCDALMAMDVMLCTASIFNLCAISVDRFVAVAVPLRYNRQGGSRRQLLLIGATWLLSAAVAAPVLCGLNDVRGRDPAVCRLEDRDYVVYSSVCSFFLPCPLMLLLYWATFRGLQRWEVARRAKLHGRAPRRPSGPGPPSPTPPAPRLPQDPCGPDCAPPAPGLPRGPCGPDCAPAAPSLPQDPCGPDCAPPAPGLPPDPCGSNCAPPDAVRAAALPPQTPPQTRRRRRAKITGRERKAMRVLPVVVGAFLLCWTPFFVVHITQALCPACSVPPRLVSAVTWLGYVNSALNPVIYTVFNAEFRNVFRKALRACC

Estrogen receptor = target: T3, Estrogen receptor (Homo sapiens, UniProt P03372)
T3 sequence (P03372 whole entry): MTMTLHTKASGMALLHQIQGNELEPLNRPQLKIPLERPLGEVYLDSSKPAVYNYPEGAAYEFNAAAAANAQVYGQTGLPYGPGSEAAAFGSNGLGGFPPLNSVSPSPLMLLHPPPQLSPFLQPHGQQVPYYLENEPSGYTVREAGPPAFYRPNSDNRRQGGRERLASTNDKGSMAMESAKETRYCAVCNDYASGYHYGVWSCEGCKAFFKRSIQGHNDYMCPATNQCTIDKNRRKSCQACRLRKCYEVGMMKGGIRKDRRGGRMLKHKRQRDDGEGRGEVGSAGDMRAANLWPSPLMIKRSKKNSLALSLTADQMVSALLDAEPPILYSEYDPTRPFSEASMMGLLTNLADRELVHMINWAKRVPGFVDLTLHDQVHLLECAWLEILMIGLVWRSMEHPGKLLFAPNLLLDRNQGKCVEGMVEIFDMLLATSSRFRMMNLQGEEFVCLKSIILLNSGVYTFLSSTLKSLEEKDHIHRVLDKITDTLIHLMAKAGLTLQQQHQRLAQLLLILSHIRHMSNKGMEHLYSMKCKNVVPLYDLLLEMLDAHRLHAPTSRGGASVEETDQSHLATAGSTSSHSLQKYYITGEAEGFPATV

[2] = target: T4, Gamma-aminobutyric acid receptor subunit alpha-1/alpha-2/beta-2/gamma-2 (Homo sapiens, UniProt P14867+P18507+P47869+P47870); assay type: functional, cell-based
[3] = target: T5, Gastric inhibitory polypeptide receptor (Homo sapiens, UniProt P48546)
T5 sequence (P48546 whole entry): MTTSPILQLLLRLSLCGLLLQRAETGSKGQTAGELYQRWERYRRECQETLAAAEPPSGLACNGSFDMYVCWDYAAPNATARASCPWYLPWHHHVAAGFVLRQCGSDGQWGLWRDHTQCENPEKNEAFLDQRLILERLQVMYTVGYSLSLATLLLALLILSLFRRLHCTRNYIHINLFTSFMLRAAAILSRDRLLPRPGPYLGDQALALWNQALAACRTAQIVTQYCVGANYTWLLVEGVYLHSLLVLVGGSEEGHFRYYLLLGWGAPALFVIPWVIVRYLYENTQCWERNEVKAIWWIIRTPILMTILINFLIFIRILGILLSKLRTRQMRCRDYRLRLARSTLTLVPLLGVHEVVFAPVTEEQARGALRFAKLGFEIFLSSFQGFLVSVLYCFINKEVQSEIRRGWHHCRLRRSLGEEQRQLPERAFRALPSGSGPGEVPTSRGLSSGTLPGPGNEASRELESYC

[4] = target: 5-hydroxytryptamine receptor 7 (Homo sapiens, UniProt P34969)
[5] = target: Vascular endothelial growth factor receptor 2 (Homo sapiens, UniProt P35968); assay type: functional
[6] = target: T4, Gamma-aminobutyric acid receptor subunit alpha-1/alpha-2/beta-2/gamma-2; assay type: protein-complex assay
[7] = target: T6, Muscarinic acetylcholine receptor M2 (Homo sapiens, UniProt P08172)
T6 sequence (P08172 whole entry): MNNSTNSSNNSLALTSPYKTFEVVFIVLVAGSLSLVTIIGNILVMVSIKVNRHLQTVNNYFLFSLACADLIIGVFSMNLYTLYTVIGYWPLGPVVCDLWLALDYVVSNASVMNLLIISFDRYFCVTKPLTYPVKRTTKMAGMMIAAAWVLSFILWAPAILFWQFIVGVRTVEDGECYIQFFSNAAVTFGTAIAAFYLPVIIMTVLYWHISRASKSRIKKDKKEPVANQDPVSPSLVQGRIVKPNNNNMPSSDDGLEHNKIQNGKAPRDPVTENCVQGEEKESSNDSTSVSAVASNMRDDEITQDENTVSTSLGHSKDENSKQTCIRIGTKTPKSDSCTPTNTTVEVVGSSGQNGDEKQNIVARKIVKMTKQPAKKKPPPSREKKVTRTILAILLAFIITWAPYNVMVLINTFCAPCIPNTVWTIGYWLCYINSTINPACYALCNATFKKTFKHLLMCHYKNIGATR
Also: assay procedure not described here.

Chain of 5-hydroxytryptamine receptor 7 (P34969 whole entry): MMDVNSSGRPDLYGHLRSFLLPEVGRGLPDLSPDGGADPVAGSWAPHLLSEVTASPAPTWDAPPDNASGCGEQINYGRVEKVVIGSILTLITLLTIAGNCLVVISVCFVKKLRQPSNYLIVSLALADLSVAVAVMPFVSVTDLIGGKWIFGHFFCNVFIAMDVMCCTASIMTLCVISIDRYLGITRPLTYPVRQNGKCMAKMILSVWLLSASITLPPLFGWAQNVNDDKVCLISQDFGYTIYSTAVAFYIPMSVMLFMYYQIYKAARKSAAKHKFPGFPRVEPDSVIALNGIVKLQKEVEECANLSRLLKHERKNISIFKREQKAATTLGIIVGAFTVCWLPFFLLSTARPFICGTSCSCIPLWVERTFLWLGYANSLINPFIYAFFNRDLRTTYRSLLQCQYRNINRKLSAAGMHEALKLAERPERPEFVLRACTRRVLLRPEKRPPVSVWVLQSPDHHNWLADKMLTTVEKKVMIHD
Chain of Vascular endothelial growth factor receptor 2 (P35968 whole entry): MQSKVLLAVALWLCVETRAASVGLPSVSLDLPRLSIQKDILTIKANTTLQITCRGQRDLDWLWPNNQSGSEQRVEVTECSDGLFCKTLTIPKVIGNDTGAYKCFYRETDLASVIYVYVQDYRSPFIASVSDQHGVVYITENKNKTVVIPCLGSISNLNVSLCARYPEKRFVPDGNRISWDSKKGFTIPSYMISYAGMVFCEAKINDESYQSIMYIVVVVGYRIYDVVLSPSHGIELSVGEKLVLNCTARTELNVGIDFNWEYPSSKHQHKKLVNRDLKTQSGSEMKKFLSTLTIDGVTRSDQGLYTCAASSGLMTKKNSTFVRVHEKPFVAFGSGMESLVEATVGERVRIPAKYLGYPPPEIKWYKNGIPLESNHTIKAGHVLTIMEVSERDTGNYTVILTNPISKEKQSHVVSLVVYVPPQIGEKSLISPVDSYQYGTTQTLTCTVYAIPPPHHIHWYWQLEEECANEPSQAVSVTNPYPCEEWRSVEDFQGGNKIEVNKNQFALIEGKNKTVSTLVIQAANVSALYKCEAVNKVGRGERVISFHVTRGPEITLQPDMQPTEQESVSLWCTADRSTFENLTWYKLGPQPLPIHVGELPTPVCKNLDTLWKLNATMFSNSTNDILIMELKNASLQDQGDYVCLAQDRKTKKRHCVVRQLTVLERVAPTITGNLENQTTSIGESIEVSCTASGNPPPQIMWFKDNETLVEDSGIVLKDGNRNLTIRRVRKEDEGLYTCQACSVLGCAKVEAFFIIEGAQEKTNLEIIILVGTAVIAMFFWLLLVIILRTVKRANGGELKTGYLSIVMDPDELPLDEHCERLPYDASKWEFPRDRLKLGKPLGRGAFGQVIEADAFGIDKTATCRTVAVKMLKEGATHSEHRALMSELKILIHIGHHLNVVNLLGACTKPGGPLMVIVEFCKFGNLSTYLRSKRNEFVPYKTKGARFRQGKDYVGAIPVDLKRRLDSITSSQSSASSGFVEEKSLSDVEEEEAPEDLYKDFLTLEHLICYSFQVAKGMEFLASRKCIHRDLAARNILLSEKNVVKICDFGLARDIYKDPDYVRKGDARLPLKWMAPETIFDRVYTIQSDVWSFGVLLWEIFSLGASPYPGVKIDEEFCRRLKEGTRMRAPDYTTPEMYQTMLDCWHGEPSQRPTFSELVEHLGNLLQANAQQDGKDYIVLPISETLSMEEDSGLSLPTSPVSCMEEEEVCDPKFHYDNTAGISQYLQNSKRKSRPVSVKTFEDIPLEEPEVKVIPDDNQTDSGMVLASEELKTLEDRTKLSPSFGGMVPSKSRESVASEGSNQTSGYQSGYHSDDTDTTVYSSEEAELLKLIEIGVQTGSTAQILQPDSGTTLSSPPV
Chain of D(1A) dopamine receptor (P21728 whole entry): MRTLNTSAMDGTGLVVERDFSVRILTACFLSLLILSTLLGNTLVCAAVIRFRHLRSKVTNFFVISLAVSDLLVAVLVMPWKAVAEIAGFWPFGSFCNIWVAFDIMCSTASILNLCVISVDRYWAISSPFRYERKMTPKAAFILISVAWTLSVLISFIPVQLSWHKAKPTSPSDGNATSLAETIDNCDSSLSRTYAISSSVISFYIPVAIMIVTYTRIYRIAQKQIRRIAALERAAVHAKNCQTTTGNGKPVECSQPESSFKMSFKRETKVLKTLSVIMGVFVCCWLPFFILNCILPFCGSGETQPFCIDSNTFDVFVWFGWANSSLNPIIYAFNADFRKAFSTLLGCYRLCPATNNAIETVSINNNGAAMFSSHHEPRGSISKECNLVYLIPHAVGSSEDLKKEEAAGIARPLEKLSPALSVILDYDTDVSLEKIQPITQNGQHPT
T4 sequence (P14867 whole entry): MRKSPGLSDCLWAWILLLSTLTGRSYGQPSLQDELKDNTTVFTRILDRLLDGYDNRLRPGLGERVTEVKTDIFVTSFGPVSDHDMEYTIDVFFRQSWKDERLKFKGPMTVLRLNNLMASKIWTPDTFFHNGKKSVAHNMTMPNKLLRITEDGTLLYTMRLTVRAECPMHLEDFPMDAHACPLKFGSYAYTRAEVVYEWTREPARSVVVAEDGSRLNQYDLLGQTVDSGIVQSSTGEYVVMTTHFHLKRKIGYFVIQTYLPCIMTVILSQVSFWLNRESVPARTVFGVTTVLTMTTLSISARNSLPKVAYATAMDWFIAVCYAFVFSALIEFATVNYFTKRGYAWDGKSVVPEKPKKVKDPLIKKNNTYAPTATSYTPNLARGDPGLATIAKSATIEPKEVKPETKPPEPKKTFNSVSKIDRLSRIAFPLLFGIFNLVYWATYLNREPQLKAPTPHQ
T4 sequence (P47870 whole entry): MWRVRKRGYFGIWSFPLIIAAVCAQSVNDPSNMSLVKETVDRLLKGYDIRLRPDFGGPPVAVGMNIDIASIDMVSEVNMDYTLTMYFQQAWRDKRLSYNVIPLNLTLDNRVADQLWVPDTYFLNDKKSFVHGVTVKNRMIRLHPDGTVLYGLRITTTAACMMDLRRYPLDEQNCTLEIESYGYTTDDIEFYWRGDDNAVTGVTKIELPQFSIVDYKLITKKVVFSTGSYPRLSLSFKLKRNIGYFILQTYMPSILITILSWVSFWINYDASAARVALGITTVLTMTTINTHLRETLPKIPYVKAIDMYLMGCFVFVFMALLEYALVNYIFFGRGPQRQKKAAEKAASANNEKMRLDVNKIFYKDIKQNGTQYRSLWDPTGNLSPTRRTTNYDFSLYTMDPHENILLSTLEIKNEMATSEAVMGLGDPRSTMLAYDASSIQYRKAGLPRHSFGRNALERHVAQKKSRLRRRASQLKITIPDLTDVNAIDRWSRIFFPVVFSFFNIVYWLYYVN
T4 sequence (P18507 whole entry): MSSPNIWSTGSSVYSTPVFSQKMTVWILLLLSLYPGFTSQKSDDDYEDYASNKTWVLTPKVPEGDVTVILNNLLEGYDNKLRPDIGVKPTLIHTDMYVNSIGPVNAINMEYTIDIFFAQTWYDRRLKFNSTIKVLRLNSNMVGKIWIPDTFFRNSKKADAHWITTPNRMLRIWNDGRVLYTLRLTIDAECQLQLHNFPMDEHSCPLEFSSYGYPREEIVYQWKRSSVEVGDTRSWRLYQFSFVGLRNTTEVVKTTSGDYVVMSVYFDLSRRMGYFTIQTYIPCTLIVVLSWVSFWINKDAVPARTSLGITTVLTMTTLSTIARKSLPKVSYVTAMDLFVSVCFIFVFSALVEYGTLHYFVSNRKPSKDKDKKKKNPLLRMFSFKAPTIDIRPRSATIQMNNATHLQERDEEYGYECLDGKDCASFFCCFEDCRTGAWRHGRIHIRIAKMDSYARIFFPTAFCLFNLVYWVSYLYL
T4 sequence (P47869 whole entry): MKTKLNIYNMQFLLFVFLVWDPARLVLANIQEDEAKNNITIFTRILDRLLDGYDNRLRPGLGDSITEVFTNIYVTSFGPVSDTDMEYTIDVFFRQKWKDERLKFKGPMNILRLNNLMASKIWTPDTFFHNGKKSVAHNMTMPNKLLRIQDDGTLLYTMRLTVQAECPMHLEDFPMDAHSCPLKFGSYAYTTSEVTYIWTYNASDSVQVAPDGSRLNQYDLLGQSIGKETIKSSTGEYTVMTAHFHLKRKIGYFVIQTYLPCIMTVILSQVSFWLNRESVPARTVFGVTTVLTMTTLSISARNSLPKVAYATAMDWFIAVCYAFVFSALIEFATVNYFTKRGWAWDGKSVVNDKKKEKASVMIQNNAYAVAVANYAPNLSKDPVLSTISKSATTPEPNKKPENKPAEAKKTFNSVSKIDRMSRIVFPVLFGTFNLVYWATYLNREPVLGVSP

| Compound | AC50 [1] | AC50 (D(1A) dopamine receptor) | AC50 (D(4) dopamine receptor) | AC50 (Estrogen receptor) | AC50 [2] | AC50 [3] | AC50 [4] | AC50 [5] | AC50 [6] | AC50 [7] |
| --- | --- | --- | --- | --- | --- | --- | --- | --- | --- | --- |
| Cc1c(C(=O)NN2CCCCC2)nn(-c2ccc(Cl)cc2Cl)c1-c1ccc(Cl)cc1 [RIMONABANT] | > 30 µM | 26 µM | > 10 µM | > 30 µM | > 30 µM | > 30 µM | > 10 µM | > 30 µM | – | – |
| C[C@@H](O)[C@H]1C(=O)N2C(C(=O)O)=C(S[C@@H]3CN[C@H](C(=O)N(C)C)C3)[C@H](C)[C@H]12 [MEROPENEM] | – | > 300 µM | – | – | > 300 µM | – | – | > 300 µM | – | – |
| C1CCC(C(CC2CCCCN2)C2CCCCC2)CC1 (stereo not given) [PERHEXILINE] | – | > 30 µM | – | – | – | – | – | > 30 µM | – | – |
| CS(=O)(=O)c1ccc(C2=C(c3ccccc3)C(=O)OC2)cc1 [ROFECOXIB] | > 30 µM | – | > 10 µM | – | – | > 30 µM | > 10 µM | – | > 30 µM | > 10 µM |
| C[C@H]1CNCCc2ccc(Cl)cc21 [LORCASERIN] | – | > 30 µM | – | – | > 30 µM | – | – | > 30 µM | – | – |
| Cn1nnc2c(C(N)=O)ncn2c1=O [TEMOZOLOMIDE] | > 30 µM | > 30 µM | > 10 µM | > 30 µM | > 30 µM | > 30 µM | > 10 µM | > 30 µM | – | > 10 µM |
| CCCN1C[C@H](CSC)C[C@@H]2c3cccc4[nH]cc(c34)C[C@H]21 [PERGOLIDE] | > 30 µM | – | – | > 30 µM | > 30 µM | > 30 µM | – | > 30 µM | – | > 10 µM |
| COc1ccc(CC(C)(C)NC[C@H](O)c2cc(O)cc3c2OCC(=O)N3)cc1 [OLODATEROL] | – | > 30 µM | – | – | > 30 µM | – | – | > 30 µM | – | – |
| c1ccc([C@H]2CN3CCSC3=N2)cc1 [LEVAMISOLE] | – | > 30 µM | – | – | > 30 µM | – | – | > 30 µM | – | – |
| CC(C)C[C@H]1C(=O)N2CCC[C@H]2[C@]2(O)O[C@](NC(=O)[C@@H]3C=C4c5cccc6[nH]c(Br)c(c56)C[C@H]4N(C)C3)(C(C)C)C(=O)N12 [BROMOCRIPTINE] | > 30 µM | > 30 µM | – | – | > 30 µM | > 30 µM | – | > 30 µM | – | > 10 µM |
| c1cnc(N2CCN(Cc3ccc4c(c3)OCO4)CC2)nc1 [PIRIBEDIL] | – | > 30 µM | – | – | > 30 µM | – | – | > 30 µM | – | – |
| O=C(OCC(O)CO)c1ccccc1Nc1ccnc2cc(Cl)ccc12 (stereo not given) [GLAFENINE] | – | > 30 µM | – | – | 17 µM | – | – | 13 µM | > 30 µM | – |
| Cc1cn([C@H]2C=C[C@@H](CO)O2)c(=O)[nH]c1=O [STAVUDINE] | > 30 µM | – | > 10 µM | – | – | > 30 µM | > 10 µM | > 30 µM | > 30 µM | > 10 µM |
| NCC(CC(=O)O)c1ccc(Cl)cc1 (stereo not given) [BACLOFEN] | > 30 µM | > 30 µM | > 10 µM | – | > 30 µM | > 30 µM | > 10 µM | > 30 µM | > 30 µM | > 10 µM |
| CN(C)CCC=C1c2ccccc2C(C)(C)c2ccccc21 | – | 4.5 µM | – | – | > 30 µM | – | – | > 30 µM | – | – |
| CNC1Cc2ccccc2N(C)c2ccccc21 (stereo not given) [METAPRAMINE] | – | > 30 µM | – | – | > 30 µM | – | – | > 30 µM | – | – |
| CCC(C)n1ncn(-c2ccc(N3CCN(c4ccc(OCC5COC(Cn6cncn6)(c6ccc(Cl)cc6Cl)O5)cc4)CC3)cc2)c1=O (stereo not given) [ITRACONAZOLE] | > 30 µM | – | > 10 µM | > 30 µM | – | > 30 µM | > 10 µM | – | – | > 10 µM |
| Cc1ccc(-c2cc(C(F)(F)F)nn2-c2ccc(S(N)(=O)=O)cc2)cc1 [CELECOXIB] | > 30 µM | – | > 10 µM | > 30 µM | – | > 30 µM | > 10 µM | – | – | > 10 µM |
